3 compounds from patent US5216124A, “Substituted cyclic tetrapeptides” (G. D. Searle & Co., priority 1991, dated 1993) can be followed below.

pIC50: −log10 of the molar value. Entries after “also recorded” stand apart in the source; their conditions may differ. Structures can show the parent of a compound that is named as a salt. Positions of bridges follow the written chain, without caps; N, C: chain ends. Non-standard residues stand in square brackets, D forms with d. Residues, ends and D or L forms follow the SMILES beside them. Dmt = Cc1cc(O)cc(C)c1C[C@H](N)C(=O)O; dPen = CC(C)(S)[C@@H](N)C(=O)O

One test has as its system CD Charles River mice. The experiment in a line: Writhing Assay (PBQ-induced writhing). In kind it is in vivo, mouse. As to conditions: for number of mice out of ten in which peptide was active, Intragastric: 10 mg/kg i.g., PBQ i.p. 15 min after dosing; for ED50 value, subcutaneous: s.c. From the text:
The "Writhing Assay" is one of the most widely-used experimental procedures for measuring the analgesic activity of different narcotic and nonnarcotic analgesic agents, and involves the continuous, chemically-induced pain of visceral origin to an animal, such as a mouse or rat. [Gyires et al., Arch. int. Pharmacodyn, 267, 131-140 (1984); C. Vander Wende et al., Fed. Proc., 15, 494 (1956); Koster et al., Fed. Proc., 18, 412 (1959); and Witken et al., J. Pharmacol. Exp. Ther., 133, 400-408 (1961). ] Chemicals which may be used to induce this pain include phenylbenzoquinone (PBQ) and acetic acid. As a result of the chemical irritation to the animal, a characteristic stretching and writhing of the animal (dorsiflexion of the animal's back, extension of its hindlimbs an the strong contraction of its abdominal musculature) will generally occur. […] Drugs which reduce the number of writhes of the animal appear to restore the normal nociceptive threshold of the animal.
This assay was conducted generally in the manner described by R. I. Taber, "Predictive Value of Analgesic Assays in Mice and Rats,"Advances in Biochemical Psychopharmacology, 8, 191 (1974). The Methyl Ester Tetrapeptide and Test Tetrapeptides Nos. 1, 3, 4, 5, 6, 7, 8 and 9 were tested in this assay.
Two hundred CD Charles River mice, weighing 20 to 30 grams were used in this assay.
Twenty-five minutes after subcutaneous administration, and fifteen minutes after intragastric administration, to the mice of 10 mg per kilogram of body weight of either a Test Tetrapeptide or the Methyl Ester Tetrapeptide, […] of body weight of a 0.025% w/v solution of PBQ was injected intraperitoneally into each mouse. Some mice were given saline in place of a Test Tetrapeptide or the Methyl Ester Tetrapeptide, and were used as a control group.
Five minutes later, each mouse was individually placed into a glass beaker for observation, and the number of writhes occurring during the following ten-minute period was counted.
A tetrapeptide compound was considered to be "active" (to have produced analgesia in a mouse) if, in accordance with the conditions set forth above, and under the test criteria employed for this assay, after the administration of 10 mg per kilogram of body weight of the tetrapeptide to the mouse, the number of writhes elicited by a mouse injected with PBQ was equal to, or less than, one-half the median number of writhes recorded for the saline-treated control group of mice that day, as described by R. I. Taber, supra.
The standard initial screening dose of a compound employed in this assay was 10 mg per kilogram (mpk) of body weight for both routes of administration. If this initial screening dose of the tetrapeptide produced analgesia in seven of ten mice, then the effect of additional doses of the tetrapeptide on the writhing response was evaluated, and then the ED50 value (that dose of a Test Tetrapeptide or the Methyl Ester Tetrapeptide which produced analgesia in 50% of the mice to which the tetrapeptide was administered) was generally calculated. A maximum likelihood function was used to determine the ED50 value. (The slopes of the dose-response curves for all tetrapeptides analyzed were compared as described by Tallarida and Murray, Manual of Pharmacologic Calculations, Page 11 (Springer Verlag, N.Y., 1981)).
On the technique in general: Writhing tests count abdominal constrictions after an irritant is injected.

Another test deals with δ opioid receptors (Rattus norvegicus, UniProt P33533). Nature of the test: Opiate Binding Assay, displacement of 3[H]-DSLET.
In the next test the target is μ opioid receptors (Rattus norvegicus, UniProt P33535). Nature of the test: Opiate Binding Assay, displacement of 3[H]-DAMPGO.
The test system of test [1] is Charles River albino mice. Nature of the test: Tail Flick Assay. It counts as in vivo, mouse. As to conditions: listed as Test Tetrapeptide No. 1, monohydrochloride. From the text: (§1) The "Tail Flick Assay" and the "Hot Plate Assay" (also known as the "Hind Paw Lick Assay") use thermal pain of transient duration, and are tests in which the pain threshold of the mice or rats being analyzed has not been altered. They are useful for evaluating the ability of a compound or drug to increase the animal's pain threshold (i.e. prolong response latencies), rather than to restore normal thresholds.
(§2) The heat-induced response to the Tail Flick Assay is a reflex reaction mediated at the level of the spinal cord. The heat-induced response to the Hot Plate Assay, however, is a more complex behavior requiring integration at higher centers in the brain. […]
(§3) Tail flick response latencies (defined as the time that elapsed between the onset of a high intensity beam of light and the reflex removal of the mouse or rat's tail) and hot plate response latencies (defined as the time that elapsed between the placement of a mouse or rat on a 55 degrees Celsius surface and a lick of the hind paw) were separately, but consecutively, measured before (baseline) and again at fixed intervals after subcutaneous or intracerebroventricular administration of one of the tetrapeptide compounds of the invention, the Methyl Ester Tetrapeptide, the Mosberg Tetrapeptide, or after the administration of saline (controls). […]
(Thermal pain tests record how soon the animal reacts.)

Test [2] concerns Charles River albino mice. Nature of the test: Hot Plate Assay (Hind Paw Lick Assay). In kind it is in vivo, mouse.
Text: as §1, §2, §3

δ opioid receptors, sequence (P33533 whole entry): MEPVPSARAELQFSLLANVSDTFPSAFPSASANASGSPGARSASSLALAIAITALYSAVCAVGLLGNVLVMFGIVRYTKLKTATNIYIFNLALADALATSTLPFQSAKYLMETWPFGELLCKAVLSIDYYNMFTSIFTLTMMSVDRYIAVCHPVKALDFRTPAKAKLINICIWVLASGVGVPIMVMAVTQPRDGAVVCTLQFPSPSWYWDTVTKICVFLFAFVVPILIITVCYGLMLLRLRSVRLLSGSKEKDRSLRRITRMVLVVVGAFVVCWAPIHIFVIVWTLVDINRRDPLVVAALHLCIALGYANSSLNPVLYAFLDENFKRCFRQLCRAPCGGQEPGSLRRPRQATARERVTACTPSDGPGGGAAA
μ opioid receptors, sequence (P33535 whole entry): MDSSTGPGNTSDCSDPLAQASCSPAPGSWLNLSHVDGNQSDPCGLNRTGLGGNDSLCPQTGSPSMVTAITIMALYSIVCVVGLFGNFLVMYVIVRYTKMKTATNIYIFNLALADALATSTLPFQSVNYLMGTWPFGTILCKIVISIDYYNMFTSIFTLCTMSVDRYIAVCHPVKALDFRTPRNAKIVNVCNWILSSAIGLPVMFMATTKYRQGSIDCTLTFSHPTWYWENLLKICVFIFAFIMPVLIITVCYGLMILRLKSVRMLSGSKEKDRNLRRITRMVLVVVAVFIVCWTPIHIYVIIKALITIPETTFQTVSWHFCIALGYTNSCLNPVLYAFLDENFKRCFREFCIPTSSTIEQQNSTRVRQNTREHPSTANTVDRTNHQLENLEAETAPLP

For the compound “2,6-dimethyl-L-tyrosyl-D-cysteinyl-4-chloro-L-phenylalanyl-3-mercapto-D-valine, cyclic (2→4)-disulfide, methyl ester, monohydrochloride [Example 32]”, the “number of mice out of ten in which peptide was active, Intragastric” value with CD Charles River mice is listed as 4/10. Besides, in the test with CD Charles River mice (10 mg/kg s.c., PBQ i.p. 25 min after dosing), the “number of mice out of ten in which peptide was active, Subcutaneous” value is 4/10. Besides, the “Percent Displacement (δ)” value on δ opioid receptors (at 100 nM, 3[H]-DSLET) was found to be 44%. The “Percent Displacement (μ)” value on μ opioid receptors (at 100 nM, 3[H]-DAMPGO) was 18%.
The pIC50 is the IC50 on a negative log10 scale, so that one unit is a factor of ten. Lower therefore signals a high IC50. Regarding `Cc1cc(O)cc(C)c1C[C@H](N)C(=O)N[C@@H]1CSSC(C)(C)[C@H](C(=O)O)NC(=O)[C@H](Cc2ccccc2)NC1=O` [Example 4, 2,6-dimethyl-L-tyrosyl-D-cysteinyl-L-phenylalanyl-3-mercapto-D-valine, cyclic (2→4)-disulfide] (H-[Dmt][dC]F[dPen]-OH; disulfide 2-4), the pIC50 on δ opioid receptors is 9.40; at μ opioid receptors it was 8.27.
As to `COC(=O)[C@@H]1NC(=O)[C@H](Cc2ccccc2)NC(=O)[C@H](NC(=O)[C@@H](N)Cc2c(C)cc(O)cc2C)CSSC1(C)C` [Example 25, 2,6-dimethyl-L-tyrosyl-D-cysteinyl-L-phenylalanyl-3-mercapto-D-valine, cyclic (2→4)-disulfide. methyl ester, monohydrochloride] (H-[Dmt][dC]F[dPen]-OMe; disulfide 2-4), in the test with CD Charles River mice, the “number of mice out of ten in which peptide was active, Intragastric” value is recorded as 3/10 and the “ED50 value, subcutaneous” value is on record as 4.1 mg per kg of body weight. For the same compound, the “ED50 value, subcutaneous” value with CD Charles River mice (PBQ i.p. 25 min after dosing) worked out at 4.1 mpk. In addition, the “activity (increase in tail flick latency), Intracerebroventricular” value in test [1] (i.c.v., at 1 μg/kg) is on record as “active”. Also, the “activity (increase in tail flick latency), Subcutaneous” value in test [1] (s.c., at 100 mpk, 100 mg/kg) is recorded as “Active; also recorded: showed activity”. For the same compound, the “activity (increase in hot plate latency), Intracerebroventricular” value in test [2] (i.c.v., at 1.0 μg/kg) is given as “Active”. For the same compound, the “activity (increase in hot plate latency), Subcutaneous” value in test [2] (s.c., at 100 mpk, listed as Test Tetrapeptide No. 1, monohydrochloride, 100 mg/kg) is recorded as “Active; also recorded: showed activity”. Besides, the “Mean IC50 Value μ/δ Ratio” value on δ opioid receptors (ratio of mean IC50 μ to δ, above 1.0 = more specific for δ) amounted to 1.2.
